Measured values from patent US20120196901A1, “TERTIARY AMIDE OREXIN RECEPTOR ANTAGONISTS” (Merck Sharp & Dohme Corp., priority 2009, published 2012).

Biological target: T1, OX2R (Homo sapiens, UniProt O43614)
T1 construct: expressed in transfected cells; host or cells: CHO cells (membranes)
T1 sequence (O43614 1-444): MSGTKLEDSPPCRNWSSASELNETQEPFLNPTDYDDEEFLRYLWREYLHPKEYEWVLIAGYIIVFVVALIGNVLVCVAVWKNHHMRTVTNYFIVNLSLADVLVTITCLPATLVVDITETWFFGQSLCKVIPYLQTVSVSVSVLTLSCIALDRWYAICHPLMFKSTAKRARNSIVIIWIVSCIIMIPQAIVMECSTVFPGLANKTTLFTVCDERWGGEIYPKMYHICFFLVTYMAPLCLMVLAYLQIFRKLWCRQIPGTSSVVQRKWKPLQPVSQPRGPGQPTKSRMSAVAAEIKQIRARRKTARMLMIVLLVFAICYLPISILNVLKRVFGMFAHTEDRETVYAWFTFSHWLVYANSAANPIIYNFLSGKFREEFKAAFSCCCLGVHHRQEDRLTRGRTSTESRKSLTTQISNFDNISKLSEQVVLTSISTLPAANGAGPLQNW
Test: radioligand binding assay, membranes prepared from CHO cells expressing the OX2 receptor
Procedure: The utility of the compounds in accordance with the present invention as orexin receptor OX1R and/or OX2R antagonists may be readily determined without undue experimentation by methodology well known in the art, including the “FLIPR Ca^2+ Flux Assay” (Okumura et al., Biochem, Biophys. Res. Comm. 280:976-981, 2001). In a typical experiment the OX1 and OX2 receptor antagonistic activity of the compounds of the present invention was determined in accordance with the following experimental method. […] Within the Fluorescent Imaging Plate Reader (FLIPR, Molecular Devices), test compounds are added to the plate in a volume of 25 ul, incubated for 5 min and finally 25 ul of agonist is added. Fluorescence is measured for each well at 1 second intervals for 5 minutes and the height of each fluorescence peak is compared to the height of the fluorescence peak induced by 70 pM Ala-6,12 orexin-A with buffer in place of antagonist. For each antagonist, […] value (the concentration of compound needed to inhibit 50% of the agonist response) is determined. Alternatively, compound potency can be assessed by a radioligand binding assay (described in Bergman et. al. Bioorg. Med. Chem. Lett. 2008, 18, 1425-1430) in which the inhibition constant (ki) is determined in membranes prepared from CHO cells expressing either the OX1 or OX2 receptor. […]

| Ki [nM] | Structure (SMILES) |
| --- | --- |
| 0.27 | COc1ccc(CCN(C(=O)c2cccc(C)n2)C(C)CCc2ccccc2)nc1OC (centres unmarked) [Cmp 2-3, N-[2-(5,6-Dimethoxy-2-pyridinyl)ethyl]-6-methyl-N-(1-methyl-3-phenylpropyl)-2-pyridinecarboxamide] |
| 0.14 | COc1cccc(C(=O)N(CCc2ccc(OC)c(OC)n2)C(C)CCc2ccccc2)n1 (centres unmarked) [Cmp 2-13, N-[2-(5,6-dimethoxypyridin-2-yl)ethyl]-6-methoxy-N-(4-phenylbutan-2-yl)pyridine-2-carboxamide] |
